The structures appear in SMILES notation.

The assay deals with T1, MshE (VC0405) (Vibrio cholerae, UniProt Q9KUV7).
T1 construct: gene VC_0405
Kind of assay: biochemical.

T1 sequence (Q9KUV7 1-575): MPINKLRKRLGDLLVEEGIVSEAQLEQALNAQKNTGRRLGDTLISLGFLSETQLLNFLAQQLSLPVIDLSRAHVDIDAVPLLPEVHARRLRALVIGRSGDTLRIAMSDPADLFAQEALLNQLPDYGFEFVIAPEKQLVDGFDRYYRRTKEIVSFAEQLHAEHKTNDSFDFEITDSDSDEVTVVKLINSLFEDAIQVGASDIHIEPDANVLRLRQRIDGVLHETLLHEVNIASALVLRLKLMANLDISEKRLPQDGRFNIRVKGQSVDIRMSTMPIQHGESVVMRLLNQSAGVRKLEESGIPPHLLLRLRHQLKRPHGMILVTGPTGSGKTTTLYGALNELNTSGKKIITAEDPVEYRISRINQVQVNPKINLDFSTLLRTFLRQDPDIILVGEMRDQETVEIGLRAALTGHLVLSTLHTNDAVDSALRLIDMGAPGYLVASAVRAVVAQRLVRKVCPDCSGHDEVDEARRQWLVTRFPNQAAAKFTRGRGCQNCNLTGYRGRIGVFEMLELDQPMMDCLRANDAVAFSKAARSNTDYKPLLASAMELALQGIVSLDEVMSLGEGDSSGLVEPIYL

`Nc1nc2c(ncn2[C@@H]2O[C@@H]3CO[P@](=O)(O)O[C@H]4[C@@H](O)[C@H](n5cnc6c(=O)[nH]c(N)nc65)O[C@@H]4CO[P@](=O)(O)O[C@H]3[C@H]2O)c(=O)[nH]1` [c-di-GMP]: the equilibrium dissociation constant (Kd) came to 1900 ± 400 nM.

What is called Kd is a measure of binding affinity in units of concentration.

For the origin of these results see PMC4624772 (PLoS Pathogens, 2015).
